# Data reported in patent publication US9586994B2, “CD44V6-derived peptides for treating breast cancer” (KARLSRUHER INSTITUT FÜR TECHNOLOGIE, priority 2012, dated 2017).
# Assays:
# CD44v6 [1] = target: T1, CD44v6 (Homo sapiens, UniProt P16070); experiment: Peptide blocking of EGF-induced Erk phosphorylation in MCF10A cells (Western blot); assay type: cell-based; conditions: MCF10 cells, serum-starved; peptide 100 ng/ml; EGF 20 ng/ml
# T1 construct: endogenous in cells; host or cells: MCF7; MCF10A
# Experimental: 3×10^5 were seeded per well of a 6-well plate and serum-starved for 24 hours. Afterwards the medium inside of each well was reduced to 1 ml and the respective peptide (v6 (both peptides of SEQ ID No.: 2 and 6 were tested), or ctrl peptide) was added at a concentration of 100 ng/ml. The cells then were incubated together with the peptide at 37° C. for 5 mins. Ligand concentration for all peptide blocking experiments was 20 ng/ml.
# To assay protein expression via Western blot cells were washed 1× with PBS and afterwards lysed in 2×Laemmli sample buffer (160 mM Tris-HCl pH 6.8, 4% SDS, 16% glycerol, 0.1M DTT, 0.01% bromphenol blue). The sample was sheared through a 26 gauge needle. In succession the lysates were boiled for 5 mins at 99° C. in order to denature the proteins in the sample and then spun down at 10 000 rmp for 1 min Eventually the samples were loaded onto an SDS-PAGE gel.
# To test whether CD44v6 acts as a co-receptor in MCF7 or MCF10A cells, a peptide blocking experiment using peptides of SEQ ID NO: 6 was conducted. The cells were serum-starved for 24 h and then pre-incubated with a v6 peptide or an unspecific control peptide. Then, the cells were induced with EGF or HGF as a control. As a read-out for ErbB-activation, the phosphorylation of the Erk-kinase was used.
# CD44v6 [2] = experiment: HGF-induced activation of Met and Erk in HeLa cells (Western blot); assay type: cell-based, human
# Experimental: (§1) FIG. 28: A: Activation of Met and signal transduction induced by HGF depends on CD44v6 in L3.6pl cells. L3.6pl cells were treated with the human v6 peptide (human v6 14mer) or the rat v6 peptide as control prior to induction with 10 ng/ml HGF. Activation of Met and ERK was determined in western blot. The numbers refer to the fold induction. The experiment was repeated at least 5 times. B: Activation of c-Met and signal transduction induced by HGF depends on CD44v6 HeLa cells. Starved HeLa cells respectively HT29 cells were incubated with the v6 peptide (human v6 14mer) or a control peptide for 10 minutes at 37° C. and then induced with 25 ng/ml of HGF for the indicated time points. Cells were then either lysed and the lysates were subjected to Western Blot analysis for phospho-Met and Met. C: Activation of c-Met and signal transduction induced by HGF depends on CD44v6 in HT29 cells. HGF-induced c-Met and Erk phosphorylation in HT29 was determined as described above using phospho-specific antibodies. […]
# (§2) The contribution of CD44v6 to Met signaling in the human epithelial pancreatic cancer cells L3.6pl (derived from Colo 357), the cervix carcinoma cells HeLa and the colon cancer cells HT29 were analysed using the CD44v6 peptide (v6 14mer; v6 5mer tested as well, data not shown).
# CD44v6 [3] = experiment: HGF-induced activation of Met and Erk in HT29 cells (Western blot); assay type: cell-based, human
# Experimental: as §1, §2
# L3.6pl cells [4] = experiment: Human orthotopic pancreatic cancer model, L3.6pl cells in nude mice, treatment from day 7; assay type: in vivo, mouse; conditions: nude mice
# Method in brief: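 L3.6pl pancreatic carcinoma cells (passage 24-26) were injected orthotopically into the pancreas of male nude mice. From day 7, groups of 15 received i.p. human v6 peptide or rat control peptide (20 μg, 14mer or 5mer), three times weekly for 21 days. Animals were killed two days after the last dose; tumors were analyzed by P-Met, Met, CD31 and caspase immunostaining.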
# L3.6pl cells [5] = experiment: Human VEGF in cell culture supernatant of L3.6pl cells (Quantikine immunoassay); assay type: cell-based; conditions: peptide 200 ng/ml in the culture medium, 5 days
# Experimental: Determination of human HGF and VEGF levels in cell culture medium of L3.6pl cells were performed using the Quantikine Human HGF Immunoassay and Quantikine Human VEGF Immunoassay from Roche (Mannheim, GER) and R&D Systems (Wiesbaden, Germany) For this purpose 3×10^6 cells were cultured for 5 days in a 15 cm plate in the presence of the respective peptides as indicated. The supernatant by centrifugation (20 ml) was centrifuged (1200 rpm) and the assay was performed according to manufacturer's instructions.
# [6] = orthotopic L3.6pl, 20 μg i.p. three times per week
# T1 sequence (P16070 21-742): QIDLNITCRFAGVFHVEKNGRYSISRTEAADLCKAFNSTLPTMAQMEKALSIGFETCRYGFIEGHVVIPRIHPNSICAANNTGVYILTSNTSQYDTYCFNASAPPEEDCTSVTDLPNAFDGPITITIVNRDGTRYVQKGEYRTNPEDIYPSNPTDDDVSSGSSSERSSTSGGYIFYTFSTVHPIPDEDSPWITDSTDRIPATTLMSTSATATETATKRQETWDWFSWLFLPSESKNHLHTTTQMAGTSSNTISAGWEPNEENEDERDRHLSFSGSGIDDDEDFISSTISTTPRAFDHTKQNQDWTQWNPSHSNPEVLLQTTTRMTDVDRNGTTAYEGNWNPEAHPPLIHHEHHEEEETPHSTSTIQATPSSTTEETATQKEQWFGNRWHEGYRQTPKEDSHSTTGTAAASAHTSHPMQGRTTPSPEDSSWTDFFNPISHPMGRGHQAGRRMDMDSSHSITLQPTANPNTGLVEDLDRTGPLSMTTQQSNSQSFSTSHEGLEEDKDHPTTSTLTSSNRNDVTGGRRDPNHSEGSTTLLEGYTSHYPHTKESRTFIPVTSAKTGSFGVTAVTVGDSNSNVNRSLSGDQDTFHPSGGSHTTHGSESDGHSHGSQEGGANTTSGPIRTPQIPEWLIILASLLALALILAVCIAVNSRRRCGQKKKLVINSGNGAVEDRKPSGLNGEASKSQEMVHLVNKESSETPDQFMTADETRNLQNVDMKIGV
sequence,measurement,setting,value
"KEQWFGNRWHEGYR [SEQ ID NO: 6, human CD44v6 14mer peptide]",EGF-induced activation of the ErbB receptors (Erk phosphorylation),CD44v6 [1],could be blocked
same,HGF-induced activation of downstream target Erk,CD44v6 [2]; peptide before induction with HGF,able to prevent activation
same,HGF-induced activation of Met,"CD44v6 [2]; starved, peptide 10 min 37° C., HGF 25 ng/ml",able to prevent activation
same,HGF-induced activation of Met,"CD44v6 [3]; HT29, starved, peptide 10 min 37° C., HGF 25 ng/ml",able to prevent activation
same,HGF-induced activation of downstream target Erk,"CD44v6 [3]; HT29, peptide before induction with HGF",able to prevent activation
same,"Tumor angiogenesis (CD31 staining, vessel number and vessel size)",L3.6pl cells [4]; orthotopic L3.6pl tumors,decreased angiogenesis as exemplified by a reduced vessel number and vessel size
same,Metastasis formation (liver),L3.6pl cells [4]; [6],completely inhibited metastasis formation within the liver
same,Outgrowth of the primary tumor in the pancreas,L3.6pl cells [4]; [6],strongly repressed
same,Met activation in the tumor (phospho-Met immunofluorescence),"L3.6pl cells [4]; orthotopic L3.6pl, 20 μg i.p. three times per week for three weeks",completely repressed Met activation
same,hVEGF secretion by L3.6pl cells,L3.6pl cells [5],can be blocked
